Results reported in ChEMBL document CHEMBL1151803, “Melanin synthesis inhibitors from Lespedeza cyrtobotrya” (J Nat Prod, 2009).

What was measured:
[1] = Inhibition of melanin synthesis in NHEM after 24 hrs by liquid scintillation; format: functional, Homo sapiens
[2] = Cytotoxicity against NHEM cells assessed as cell viability 24 hrs by WST-8 assay; format: cell-based; details: human

IC50 ([1]; read-out: IC50)	IC50 [1]	Structure (SMILES)	Activity [2]
8.7 µM	–	CC(C)=CCc1c(O)ccc2c1O[C@H]1c3ccc(O)cc3OC[C@@H]21 [PHASEOLLIDIN]	Non-toxic
–	Not Active	CC(C)=CCc1c(O)cc(O)c2c1O[C@H](c1ccc(O)cc1O)CC2=O [LEACHIANONE G]	Non-toxic
18 µM	–	CC(C)=CCc1cc2c(cc1O)O[C@H](c1ccc(O)cc1)CC2=O [BAVACHIN]	Non-toxic
–	Not Active	Cc1c(O)cc2occ(-c3ccc(O)cc3)c(=O)c2c1O	Non-toxic
29.2 µM	–	O=c1c(-c2ccc(O)cc2)coc2cc(O)cc(O)c12 [GENISTEIN]	Non-toxic
0.98 µM	–	CC(C)=CCC/C(C)=C/Cc1c(O)ccc(C(=O)/C=C/c2ccc(O)cc2)c1O [XANTHOANGELOL]	Non-toxic
–	–	CC1(C)C=Cc2cc3c(cc2O1)OC[C@H]1c2ccc4c(c2O[C@@H]31)C=CC(C)(C)O4 [LESPECYRTIN E1]	Non-toxic
–	Not Active	CC(C)=CCc1c(O)c(O)cc2c1oc1c3ccc(O)cc3oc(=O)c21 [LESPECYRTIN G1]	Non-toxic
14.7 µM	–	O=C1C[C@@H](c2ccc(O)cc2)Oc2cc(O)ccc21 [LIQUIRTIGENIN]	Non-toxic
5.4 µM	–	CC(C)=CCc1c(O)cc2occ(-c3ccc(O)cc3O)c(=O)c2c1O [UNCINANONE A]	Non-toxic
–	Not Active	CC(C)=CCc1c(O)ccc2c1O[C@H](c1ccc(O)cc1)[C@@H](O)C2=O [LESPECYRTIN A1]	Non-toxic
3 µM	–	C=C(C)C1Cc2c(ccc(C(=O)CCc3ccc(O)cc3)c2O)O1 (stereo not drawn) [LESPECYRTIN C1]	Non-toxic
3.7 µM	–	CC(C)=CCc1c(O)c2c(c3c1[C@@H]1COc4cc5c(cc4[C@@H]1O3)C=CC(C)(C)O5)C=CC(C)(C)O2 [LESPECYRTIN E2]	Non-toxic
3.2 µM	–	CC(C)=CCc1cc(/C=C/C(=O)c2ccc(O)cc2O)ccc1O [LICOAGROCHALCONE A]	Non-toxic
9.1 µM	–	CC(C)(O)C1Cc2c(O)ccc(C(=O)/C=C/c3ccc(O)cc3)c2O1 (stereo not drawn) [LESPECYRTIN B3]	Non-toxic
2 µM	–	CC(C)=CCc1c(O)ccc2c1O[C@H]1c3ccc(O)c(CC=C(C)C)c3OC[C@@H]21 [ERYBRAEDIN A]	Non-toxic
–	Not Active	Cc1c(O)cc2c(c1O)C(=O)[C@H](O)[C@@H](c1ccc(O)cc1)O2	Non-toxic
16 µM	–	COc1cc2c(cc1O)O[C@H]1c3cc4c(cc3OC[C@@H]21)OC(C)(C)[C@H](O)C4 [LESPECYRTIN E7]	Non-toxic
1.4 µM	–	CC(C)=CCc1c(O)ccc(C(=O)/C=C/c2ccc(O)cc2)c1O [ISOBAVACHALCONE]	Non-toxic
2 µM	–	CC(C)=CCc1cc([C@@H]2CC(=O)c3ccc(O)cc3O2)ccc1O [ABYSSINONE II]	Non-toxic
103 µM	–	Oc1ccc(O)cc1 [HYDROQUINONE]	–
6.2 µM	–	CC(C)=CCC1=C(O)C(C(=O)c2c(-c3cc(CC=C(C)C)c(O)cc3O)oc3c4c(c(O)cc23)OC(C)(C)C=C4)=C[C@@H]2c3c(c4cc(CC=C(C)C)c(O)cc4oc3=O)O[C@H]12 [LESPECYRTIN H4]	Non-toxic
3.4 µM	–	CC(C)=CCc1c(O)ccc2c1O[C@H]1c3cc(CCC(C)(C)O)c(O)cc3OC[C@@H]21 [LESPECYRTIN E6]	Non-toxic

IC50 ([1]; read-out: IC50)	IC50 [1]	Structure (SMILES)	Activity [2]
–	Not Active	CC(C)=CCC1=C(O)C(C(=O)c2c(-c3cc(CC=C(C)C)c(O)cc3O)oc3c(CC=C(C)C)c(O)c(O)cc23)=C[C@@H]2c3c(c4cc(CC=C(C)C)c(O)cc4oc3=O)O[C@H]12 [LESPECYRTIN H2]	Non-toxic
38.4 µM	–	COc1c(O)ccc(-c2coc3cc(O)cc(O)c3c2=O)c1OC [BAVAISOFLAVANONE]	Non-toxic
4.6 µM	–	COc1c2c(cc3c1[C@@H]1Oc4ccc5c(c4[C@@H]1CO3)C=CC(C)(C)O5)OC(C)(C)C=C2 [GANGETININ]	Non-toxic
0.4 µM	–	CC(C)=CCc1cc2c(cc1O)OC[C@H]1c3c4c(c(O)c(CC=C(C)C)c3O[C@@H]21)OC(C)(C)C=C4 [LESPECYRTIN E3]	Non-toxic
10.1 µM	–	CC(C)=CCC1=C(O)C(C(=O)c2c(-c3cc4c(cc3O)OC(C)(C)C=C4)oc3c(CC=C(C)C)c(O)c(O)cc23)=C[C@@H]2c3c(c4cc(CC=C(C)C)c(O)cc4oc3=O)O[C@H]12 [LESPECYRTIN H3]	Non-toxic
2.1 µM	–	COc1cc([C@@H]2COc3cc(O)c(CC=C(C)C)cc3C2)c(O)cc1O [LESPECYRTIN D1]	Non-toxic
15.9 µM	–	CC(C)=CCc1cc2c(cc1O)OCc1c-2oc2c(CC=C(C)C)c(O)c(O)cc12 [LESPECYRTIN F2]	Non-toxic
2.4 µM	–	CC(C)=CCCC1(C)C=Cc2c(ccc(C(=O)/C=C/c3ccc(O)cc3)c2O)O1 (stereo not drawn) [LESPEOL]	Non-toxic
3.2 µM	–	CC(C)=CCc1cc2c(cc1O)OC[C@H]1c3cc(C)c(O)c(CC=C(C)C)c3O[C@@H]21 [LESPEFLORIN G4]	Non-toxic
7.5 µM	–	CC1(C)C=Cc2c(ccc3c2O[C@H]2c4ccc(O)cc4OC[C@@H]32)O1 [PHASEOLIN]	Non-toxic
5.5 µM	–	CC(C)=CCc1cc2c(cc1O)OC[C@H]1c3ccc(O)c(CC=C(C)C)c3O[C@@H]21 [ERYBRAEDIN C]	Non-toxic
–	Not Active	CC(C)=CCc1c(O)c(O)cc2c3c(oc12)-c1ccc(O)cc1OC3 [LESPECYRTIN F1]	Non-toxic
–	–	CC(C)=CCc1cc(-c2oc3c(CC=C(C)C)c(O)c(O)cc3c2C(=O)c2cc3c(c(CC=C(C)C)c2O)O[C@H]2c4cc(CC=C(C)C)c(O)cc4OC[C@@H]32)c(O)cc1O [LESPEFLORIN J3]	Non-toxic
2.2 µM	–	OC[C@H]1O[C@@H](Oc2ccc(O)cc2)[C@H](O)[C@@H](O)[C@@H]1O [ARBUTIN]	–
25.7 µM	–	CC(C)=CCc1cc2c(cc1O)oc(=O)c1c3cc(O)c(O)c(CC=C(C)C)c3oc21 [LESPEFLORIN I2]	Non-toxic
4.5 µM	–	CC(C)=CCc1c(O)c2c(c3c1O[C@H]1c4cc5c(cc4OC[C@@H]31)OC(C)(C)C=C5)C=CC(C)(C)O2 [LESPECYRTIN E4]	Non-toxic
8.9 µM	–	CC(C)=CCC1=C(O)C(Cc2c(-c3cc(CC=C(C)C)c(O)cc3O)oc3c(CC=C(C)C)c(O)c(O)cc23)=C[C@@H]2c3c(c4cc(CC=C(C)C)c(O)cc4oc3=O)O[C@H]12 [LESPECYRTIN H1]	Non-toxic
2 µM	–	CC1(C)C=Cc2c(ccc(C(=O)CCc3ccc(O)cc3)c2O)O1	Non-toxic
9.4 µM	–	CC(C)=CCc1cc(-c2coc3cc(O)ccc3c2=O)ccc1O [NEOBAVAISOFLAVONE]	Non-toxic
1.3 µM	–	C=C(C)C1Cc2c(ccc(C(=O)/C=C/c3ccc(O)cc3)c2O)O1 (stereo not drawn) [LESPECYRTIN B1]	Non-toxic
1.5 µM	–	CC(C)=CCc1c(O)c(C)cc2c1O[C@H]1c3cc4c(cc3OC[C@@H]21)OC(C)(C)C=C4 [LESPECYRTIN E5]	Non-toxic
1 µM	–	CC1(C)C=Cc2c(O)ccc(C(=O)/C=C/c3ccc(O)cc3)c2O1 [LESPECYRTIN B2]	Non-toxic

Structure (SMILES)	IC50 ([1]; read-out: IC50)	IC50 [1]	Activity [2]
O=C1C[C@@H](c2ccc(O)cc2)Oc2cc(O)cc(O)c21 [NARINGENIN]	73.5 µM	–	Non-toxic
